Data from article PMC6304418, “A Novel Compound Targeting Protease Receptor 1 Activators for the Treatment of Glioblastoma” (Frontiers in Neurology, 2018).
Where a SMILES comes first, the peptide text is derived from it. The star is where a group is joined. Tos = Cc1ccc(S(=O)(=O)*)cc1; CH2Cl = ClC*

Key:
[1] = system: thrombin mediated PAR1 activation (pERK/ERK) in CNS-1 cells; assay: ERK activation (pERK/ERK, Western blot) in CNS-1 cells; format: cell-based, rat; details: thrombin 1 U/ml, 10 min, FCS-free; n = 3; control 1 ± 0.07; p < 0.03 vs. control
Protocol: Cells were seeded (1 × 10^6 cells/75 cm^2 flask) and incubated for 24 h. Then the medium was replaced by FCS-free medium for another 24 h. The cells were treated for 10 min with thrombin (1 U/ml), SIXAC (100 nM), a combination of thrombin and SIXAC or a FCS-free medium which was used as a control (n = 3 for each treatment). The cells were washed and lysed in RIPA buffer (containing in mM: 50 TRIS HCl pH 8, 150 NaCl, 1% NP-40, 0.5% sodium deoxycholate, and 0.1% SDS), a protease inhibitor cocktail (Merck Millipore 539134, 1:100), 0.1 mM sodium orthovanadate and 2 mM PMSF. The cells were scraped, collected and centrifuged (16,000g × 20 min) at 4°C. The supernatants were collected, and protein concentration was determined by means of a bicinchoninic acid (BCA) assay. Each sample (20 μg) was separated by SDS-polyacrylamide gel electrophoresis. The proteins were transferred onto nitrocellulose membranes. Membranes were incubated with mouse anti-phosphorylated Extracellular signal-Regulated Kinase (pERK) antibody (1:10,000, M8159, Sigma), for 1.5 h at room temperature (RT) and washed with Tris-buffered saline and 0.1% Tween 20 (TBST). Membranes were then incubated at RT with horseradish peroxidase-conjugated goat anti-mouse antibody (1:10,000, Jackson Immunoresearch Laboratories). […] Protein bands were detected by a peroxidase-based enhanced chemiluminescence (ECL) method. […]

PAR1 = details: use limited; ref [34] Gao et al., 2015; cited from earlier work
Excerpt: Numerous findings support the involvement of the thrombin-PAR1 pathway in glioma pathology ([8], [13], [18]). We have previously found a positive correlation between edema size and PAR1 expression in an animal model of GBM ([19]). […] In addition to the direct thrombin-PAR1 effects on glioma cells, PARs play a crucial role in the control of angiogenesis and vascular permeability by regulating the release of endostatin and vascular endothelial growth fac ...

U87 glioma cells = assay: U87 glioma cell proliferation (XTT); format: cell-based, human; details: 72 h
Protocol: CNS-1, C6, and U87 rat and human glioma cells were grown in Dulbecco's modified Eagle's medium (DMEM; Bet Haemek, Biological Industries, Israel) supplemented with 10% fetal bovine serum (Bet Haemek, Biological Industries, Israel) and 1% penicillin and streptomycin in a 5% CO2-humidified atmosphere.
Cell proliferation was evaluated using a 2.3-Bis-(2-methoxy-4-nitro-5-sulfophenyl)-2H-tetrazolium-5-carboxyanilide salt (XTT)-based cell proliferation assay kit (Bet Haemek, Biological Industries, Israel). U87 cells were seeded in 96-well plates (5 × 10^3 cells/well) and incubated for 24 h. The medium was then removed, the tested molecules (10^−13-10^−4 M final concentration) were added in FCS-free medium and introduced to the cells for 72 h. After choosing SIXAC as the leading molecule, it was tested in a similar way in CNS-1 cells (SIXAC 1 μM final concentration). XTT solution (50 μl) was added to each well and incubated for 3 h at 37°C. The optical density (OD) of each well was recorded at 450 and 630 nm in a microplate reader (Infinite M200, Tecan, Durham, NC, USA). Cell viability was expressed as the percentage (ODtest–ODblank)/(ODcontrol–ODblank), where ODtest is the optical density of cells exposed to SIXAC treatment, ODcontrol is the optical density of the control sample, and ODblank is the optical density of wells without glioma cells.

thrombin
pERK/ERK ratio, thrombin alone [1]: 2.09 ± 0.28

CCOC(=O)N[C@@H]1CC[C@@H]2[C@@H](C1)C[C@H]1C(=O)O[C@H](C)[C@H]1[C@H]2/C=C/c1ccc(-c2cccc(F)c2)cn1 [Vorapaxar]
bleeding side-effects (PAR1): limited due to bleeding side-effects

Cc1ccc(S(=O)(=O)N[C@@H](CC(=O)O)C(=O)N2CCC[C@H]2C(=O)N[C@@H](CCCNC(=N)N)C(=O)CCl)cc1 [3AACK] (Tos-Asp-Pro-Arg-CH2Cl)
U87 proliferation rate ("inhibit proliferation at a rate of") (U87 glioma cells; 10^−5M, FCS-free medium, mean ± SEM, 3AACK vs. 6AACK p < 0.035): 0.58 ± 0.046
U87 proliferation inhibition, compared with 6AACK (U87 glioma cells; 10^−8M, p = 0.7): inhibits more efficiently the proliferation rate when compared to 6AACK at a concentration of 10^−8M, this was found to be non-significant
